Common to all, as to type: cell-based
For assay [1], the target named is T1, human TLR8 (Homo sapiens, UniProt Q9NR97).
T1 construct: host or cells: HEK-Blue cells (HEK293-derived reporter line)
T1 sequence (Q9NR97 27-1041): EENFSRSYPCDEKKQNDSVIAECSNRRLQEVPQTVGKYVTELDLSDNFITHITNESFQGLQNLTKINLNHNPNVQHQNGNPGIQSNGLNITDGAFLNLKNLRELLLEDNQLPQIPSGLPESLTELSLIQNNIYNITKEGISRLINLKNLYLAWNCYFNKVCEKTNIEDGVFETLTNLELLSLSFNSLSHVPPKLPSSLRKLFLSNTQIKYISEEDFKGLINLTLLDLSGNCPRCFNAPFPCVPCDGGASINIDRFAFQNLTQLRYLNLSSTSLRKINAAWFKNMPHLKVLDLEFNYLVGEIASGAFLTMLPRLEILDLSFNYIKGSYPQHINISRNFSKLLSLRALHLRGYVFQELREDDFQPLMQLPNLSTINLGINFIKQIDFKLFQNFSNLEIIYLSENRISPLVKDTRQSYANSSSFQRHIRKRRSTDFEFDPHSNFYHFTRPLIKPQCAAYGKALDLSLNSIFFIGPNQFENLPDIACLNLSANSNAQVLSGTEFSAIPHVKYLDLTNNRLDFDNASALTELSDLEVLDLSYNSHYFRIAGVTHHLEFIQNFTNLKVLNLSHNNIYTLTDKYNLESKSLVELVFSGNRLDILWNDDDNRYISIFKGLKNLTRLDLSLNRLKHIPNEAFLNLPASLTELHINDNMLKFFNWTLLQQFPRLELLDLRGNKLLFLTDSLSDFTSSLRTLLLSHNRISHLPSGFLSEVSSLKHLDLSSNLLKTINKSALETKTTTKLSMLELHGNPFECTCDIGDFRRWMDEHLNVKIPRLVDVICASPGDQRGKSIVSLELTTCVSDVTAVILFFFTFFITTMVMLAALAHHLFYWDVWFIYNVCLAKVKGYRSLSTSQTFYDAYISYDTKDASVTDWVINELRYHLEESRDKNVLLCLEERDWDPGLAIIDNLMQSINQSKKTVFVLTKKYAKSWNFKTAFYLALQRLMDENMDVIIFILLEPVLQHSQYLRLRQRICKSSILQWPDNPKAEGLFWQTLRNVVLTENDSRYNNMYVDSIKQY
The experiment in a line: TLR8 inhibition reporter assay (HEK-Blue cells, SEAP reporter, R848 stimulation). To be noted: HEK-Blue cells overexpressing human TLR8, SEAP reporter, R848 15.9 μM. In short, it runs like this: (§1)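 Read-out is SEAP activity in HEK-Blue detection medium after 22 h at 37 °C, converted to percent inhibition against agonist-plus-DMSO and reference-inhibitor controls. Cells saw compound (0.05 nM–50 μM, 30 min, room temperature) before gardiquimod 7.5 μM, R848 15.9 μM or ODN2006 5 nM for TLR7, TLR8 and TLR9, respectively.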

Assay [2] has as its target T2, human TLR9 (Homo sapiens, UniProt Q9NR96).
T2 construct: host or cells: HEK-Blue cells (HEK293-derived reporter line)
T2 sequence (Q9NR96 26-1032): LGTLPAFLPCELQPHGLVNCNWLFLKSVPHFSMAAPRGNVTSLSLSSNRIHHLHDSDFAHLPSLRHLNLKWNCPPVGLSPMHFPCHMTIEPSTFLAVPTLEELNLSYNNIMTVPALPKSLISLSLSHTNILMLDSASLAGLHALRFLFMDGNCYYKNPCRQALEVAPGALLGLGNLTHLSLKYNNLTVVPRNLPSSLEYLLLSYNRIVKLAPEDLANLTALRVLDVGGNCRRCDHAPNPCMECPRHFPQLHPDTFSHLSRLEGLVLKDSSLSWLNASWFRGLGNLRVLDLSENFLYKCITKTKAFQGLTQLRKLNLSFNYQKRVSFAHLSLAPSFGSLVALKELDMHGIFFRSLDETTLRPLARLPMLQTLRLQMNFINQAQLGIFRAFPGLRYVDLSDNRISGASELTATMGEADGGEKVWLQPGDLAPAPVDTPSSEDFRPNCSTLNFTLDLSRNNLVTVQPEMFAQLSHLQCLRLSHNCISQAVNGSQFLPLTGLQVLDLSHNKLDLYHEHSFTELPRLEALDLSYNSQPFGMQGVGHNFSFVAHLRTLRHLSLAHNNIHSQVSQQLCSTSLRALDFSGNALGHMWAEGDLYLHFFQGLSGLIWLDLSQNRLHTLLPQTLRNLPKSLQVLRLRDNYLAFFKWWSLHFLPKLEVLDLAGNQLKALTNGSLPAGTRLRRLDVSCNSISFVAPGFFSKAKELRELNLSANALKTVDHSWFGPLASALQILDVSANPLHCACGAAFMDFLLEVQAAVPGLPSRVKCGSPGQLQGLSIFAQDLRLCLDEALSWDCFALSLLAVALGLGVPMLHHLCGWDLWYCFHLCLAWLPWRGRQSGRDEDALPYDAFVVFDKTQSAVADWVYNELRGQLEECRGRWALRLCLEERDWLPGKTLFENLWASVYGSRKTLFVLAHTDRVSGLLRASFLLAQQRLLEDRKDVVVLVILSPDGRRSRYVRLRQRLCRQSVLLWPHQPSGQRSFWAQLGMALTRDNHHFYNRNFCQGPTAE
The experiment in a line: TLR9 inhibition reporter assay (HEK-Blue cells, SEAP reporter, ODN2006 stimulation). Particulars: HEK-Blue cells overexpressing human TLR9, SEAP reporter, ODN2006 5 nM. In outline: as §1
On the technique in general: Reporter assays use an easily measured gene product as a stand-in for the process of interest.

Assay [3] concerns the target T3, human TLR7 (Homo sapiens, UniProt Q9NYK1).
T3 construct: host or cells: HEK-Blue cells (HEK293-derived reporter line)
T3 sequence (Q9NYK1 27-1049): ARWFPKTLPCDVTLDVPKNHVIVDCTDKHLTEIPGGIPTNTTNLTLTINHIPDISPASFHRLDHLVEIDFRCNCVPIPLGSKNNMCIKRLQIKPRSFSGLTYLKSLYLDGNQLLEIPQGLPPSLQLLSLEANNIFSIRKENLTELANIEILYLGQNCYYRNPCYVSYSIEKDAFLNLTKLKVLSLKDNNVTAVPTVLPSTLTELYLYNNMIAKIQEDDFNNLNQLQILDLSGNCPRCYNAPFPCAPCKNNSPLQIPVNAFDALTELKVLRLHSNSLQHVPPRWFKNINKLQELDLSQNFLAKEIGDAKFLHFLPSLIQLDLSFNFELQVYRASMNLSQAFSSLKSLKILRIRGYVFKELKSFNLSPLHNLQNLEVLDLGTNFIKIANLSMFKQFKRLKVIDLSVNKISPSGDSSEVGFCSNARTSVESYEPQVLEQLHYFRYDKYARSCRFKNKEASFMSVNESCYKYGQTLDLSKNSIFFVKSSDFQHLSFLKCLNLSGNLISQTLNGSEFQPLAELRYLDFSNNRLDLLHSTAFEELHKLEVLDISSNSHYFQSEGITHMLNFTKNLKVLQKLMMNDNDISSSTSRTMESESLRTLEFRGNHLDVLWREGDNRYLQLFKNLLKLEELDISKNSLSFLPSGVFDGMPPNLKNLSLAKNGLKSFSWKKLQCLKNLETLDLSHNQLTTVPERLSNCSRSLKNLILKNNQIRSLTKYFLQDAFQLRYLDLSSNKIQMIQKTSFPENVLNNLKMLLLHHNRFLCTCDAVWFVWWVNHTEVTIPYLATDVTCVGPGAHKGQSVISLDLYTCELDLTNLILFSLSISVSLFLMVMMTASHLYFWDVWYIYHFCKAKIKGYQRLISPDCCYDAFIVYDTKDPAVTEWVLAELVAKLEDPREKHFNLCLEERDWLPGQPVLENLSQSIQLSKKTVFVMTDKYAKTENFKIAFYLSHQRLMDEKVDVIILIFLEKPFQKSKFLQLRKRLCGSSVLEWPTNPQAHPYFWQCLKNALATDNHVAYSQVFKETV
Nature of the assay: TLR7 inhibition reporter assay (HEK-Blue cells, SEAP reporter, gardiquimod stimulation). To be noted: HEK-Blue cells overexpressing human TLR7, SEAP reporter, gardiquimod 7.5 μM. In short, it runs like this: as §1

The IC50 is the concentration that gives 50% inhibition. Read a high IC50 as weaker potency in that assay.

For the compound `CNC(=O)CN1CCC(c2ccc3[nH]c(-c4cn5ccnc5c(Cl)c4C)c(C(C)C)c3c2)CC1` [Example 414, 2-(4-(2-(8-chloro-7-methylimidazo[1,2-a]pyridin-6-yl)-3-isopropyl-1H-indol-5-yl)piperidin-1-yl)-N-methylacetamide], the IC50 in assay [1] is less than 0.1 µM; in assay [2], 1 to 50 µM; in assay [3], less than 0.1 µM.
Turning to `Cc1cc2nnnn2cc1-c1[nH]c2ccc(C3CCN(CC(N)=O)CC3)cc2c1C(C)C` [Example 315, 2-(4-(3-isopropyl-2-(7-methyltetrazolo[1,5-a]pyridin-6-yl)-1H-indol-5-yl)piperidin-1-yl)acetamide], the IC50 is less than 0.1 µM in assay [1], 1 to 50 µM in assay [2] and less than 0.1 µM in assay [3].
Regarding `Cc1cc(-c2[nH]c3ccc(C4CCN(Cc5ccn(C)n5)CC4)cc3c2C(C)C)cn2nnnc12` [Example 884, 6-(3-isopropyl-5-(1-((1-methyl-1H-pyrazol-3-yl)methyl)piperidin-4-yl)-1H-indol-2-yl)-8-methyltetrazolo[1,5-a]pyridine], the IC50 is less than 0.1 µM in assay [1], 1 to 50 µM in assay [2] and less than 0.1 µM in assay [3].
Consider `CNC(=O)CN1CCC(c2ccc3[nH]c(-c4cc(C)c5nc(C(=O)N(C)CCO)cn5c4)c(C(C)C)c3c2)CC1` [Example 345, N-(2-hydroxyethyl)-6-(3-isopropyl-5-(1-(2-(methylamino)-2-oxoethyl)piperidin-4-yl)-1H-indol-2-yl)-N,8-dimethylimidazo[1,2-a]pyridine-2-carboxamide], for which the IC50 in assay [1] was 0.1 to 1 µM; in assay [2], 1 to 50 µM; in assay [3], less than 0.1 µM.
Take `FC(F)Cc1c(-c2ccnc3[nH]ccc23)[nH]c2ccc(C3CCNCC3)cc12` [Example 205, 4-(3-(2,2-difluoroethyl)-5-(piperidin-4-yl)-1H-indol-2-yl)-1H-pyrrolo [2,3-b]pyridine]: the IC50 in assay [1] was less than 0.1 µM; in assay [2] it was 0.1 to 1 µM; in assay [3] it was less than 0.1 µM.
On to `CC(C)c1c(-c2cn(C)c3ncccc23)[nH]c2ccc(C3CCN(CC(C)(C)O)CC3)cc12` [Example 750, 1-(4-(3-isopropyl-2-(1-methyl-1H-pyrrolo[2,3-b]pyridin-3-yl)-1H-indol-5-yl)piperidin-1-yl)-2-methylpropan-2-ol], for which the IC50 in assay [1] is less than 0.1 µM; in assay [2], 1 to 50 µM; in assay [3], less than 0.1 µM.
As for `Cc1c(-c2ccnc3c2ccn3C)[nH]c2ccc(C3CCN(C4CCN(CC(C)C)CC4)CC3)cc12` [Example 843, 4-(5-(1′-isobutyl-[1,4′-bipiperidin]-4-yl)-3-methyl-1H-indol-2-yl)-1-methyl-1H-pyrrolo[2,3-b]pyridine], the IC50 in assay [1] is less than 0.1 µM; in assay [2], less than 0.1 µM; in assay [3], 1 to 50 µM.
With `CC(C)c1c(-c2ccc3cnnn3c2)[nH]c2ccc(C3CCN(CC(=O)N(C)C)CC3)cc12` [Example 299, 2-(4-(2-([1,2,3]triazolo[1,5-a]pyridin-6-yl)-3-isopropyl-1H-indol-5-yl)piperidin-1-yl)-N,N-dimethylacetamide], the IC50 in assay [1], in assay [2] and in assay [3] was 0.1 to 1 µM in each case.
Turning to `Cc1c(-c2[nH]c3ccc(C4CCN(C(=O)CN(C)C)CC4)cc3c2C(C)C)nn2ncnc2c1C` [Example 453, 1-(4-(2-(7,8-dimethyl-[1,2,4]triazolo [1,5-b]pyridazin-6-yl)-3-isopropyl-1H-indol-5-yl)piperidin-1-yl)-2-(dimethylamino)ethan-1-one], the IC50 in assay [1] is less than 0.1 µM; in assay [2] it was 1 to 50 µM; in assay [3], less than 0.1 µM.
For `CC(C)c1c(-c2ccnc3[nH]ncc23)[nH]c2ccc(C3CCN(C(=O)CN4CCC(CO)CC4)CC3)cc12` [Example 576, 2-(4-(hydroxymethyl)piperidin-1-yl)-1-(4-(3-isopropyl-2-(1H-pyrazolo[3,4-b]pyridin-4-yl)-1H-indol-5-yl)piperidin-1-yl)ethan-1-one], the IC50 in assay [1] is less than 0.1 µM; in assay [2], 1 to 50 µM; in assay [3] it was less than 0.1 µM.
`CC(C)c1c(-c2ncnn3cccc23)[nH]c2ccc(C3CCN(CC(=O)N(C)C)CC3)cc12` [Example 424, 2-(4-(3-isopropyl-2-(pyrrolo[2,1-f][1,2,4]triazin-4-yl)-1H-indol-5-yl)piperidin-1-yl)-N,N-dimethylacetamide]: the IC50 in assay [1], in assay [2] and in assay [3] was 0.1 to 1 µM throughout.
In the case of `CC(C)c1c(-c2cnc3[nH]c(=O)oc3c2)[nH]c2ccc(C3CCNCC3)cc12` [Example 16, 6-(3-isopropyl-5-(piperidin-4-yl)-1H-indol-2-yl)oxazolo[4,5-b]pyridin-2(3H)-one], the half-maximal inhibitory concentration (IC50) in assay [1] was greater than 3.13 µM; in assay [2] it was 1 to 50 µM; in assay [3] it was 0.1 to 1 µM.

The record behind these values is patent US11739098B2 (BRISTOL-MYERS SQUIBB COMPANY, priority 2017, dated 2023).
